Reference: patent US9150509B2, “Lipoic acid derivatives” (Cornerstone Pharmaceuticals, Inc., priority 2007, dated 2015)
Read-outs that look alike come from different tables or passages of the source.

Tests used:
Assay type in all cases: cell-based
human melanoma A2058 = assay: Anti-tumor activity, cell growth inhibition by CellTiter Blue Assay, A2058; settings: read-out: IC50 A2058 (melanoma)
Description: (§1) Three human tumor cells were used in this investigation, and they were human H460 NSCLC, human melanoma A2058 and human […] HT1080 cell lines. Cells were originally obtained from American Type Cell Culture (ATCC) and have been used for experiments at passages below 30. All tumor cells were maintained at 37° C. in a humidified 5% CO2 atmosphere in T75 tissue culture flasks containing 25 mL of Roswell Park Memorial Institute (RPMI) 1640, with 10% fetal bovine serum (FBS) and 2 mM L-glutamine. The tumor cells were split at a ratio of 1:10 every 4-5 days by trypsinization and resuspended in fresh medium in a new flask. Cells were harvested for experiments at 70-90% confluency.
(§2) The culture media used for all cell lines in this study was Roswell Park Memorial Institute (RPMI) 1640, with 10% fetal bovine serum (FBS), 2 mM L-glutamine, 100 IU/mL penicillin and 100 μg/ml streptomycin. The test compounds used were generally prepared at a concentration higher than 20 mM and tested at 1 mM in cultured media for precipitation, 1 mM is the highest tested concentration of the test compounds.
(§3) The anti-tumor activities of the test compounds were assessed by exposing the tumor cells to various concentrations of test compounds (or vehicle) or not treated with the test compounds or vehicle. The concentration ranges of the test compounds evaluated in this study were 0-1 mM. The duration of treatment of the tumor cells was 48 hours. Subsequent to treatment with the test articles, the number of viable tumor cells was determined, and the concentrations of the test agents that induced 50% of cell growth inhibition (IC50) were derived and compared.
(§4) Cell Seeding for Experiments: To cells grown to 70-90% confluency, medium was removed and the cell monolayers were washed briefly by adding 5 mL of phosphate buffer saline (PBS) followed by aspiration. Trypsin-ethylenediaminetetraacetic acid (EDTA) (4 mL) was added to each, flask, and the flask was placed in the tissue culture incubator for 5 minutes. Serum-containing medium (10 mL) was added to halt the enzymatic reactions, and cells were disaggregated, by repeated resuspension with serological pipet. The cell-containing medium (20 μL) was added to 20 μL of 0.4% Trypan Blue solution, mixed, and 10 μL of this cell-containing mixture was placed in a chamber of a hemocytometer. The number of viable cells was determined by counting the number of viable cells (cells that excluded trypan blue) in the 4 corner squares of the hemocytometer chamber at 100× magnification. The volume of cells needed was determined by the following formula:
(§5) The number of cells targeted for the study was 4×10^3 per well in 100 μL of medium. The actual number of cells were counted and seeded in the wells of a 96 well-plate. The cells were then incubated for ˜24 hrs before they were used for testing of anti-tumor activities of the test compounds and vehicle. Cell monolayer was confluent or subconfluent for some cell lines at the day of the experiment.
(§6) Treatment with Test Compounds and Vehicle: On the day of testing, 5 μL of a specific concentration of the test compounds (or vehicle) were added to the wells. After exposure to the test articles (or vehicle) for 48 hours, the number of viable cells in the wells was determined (see next section), and the percent of cells relative to no treatment was calculated.
(§7) Determination of the Number of Viable Cells by the CellTiter Blue Assay: The number of viable cells was determined using the CellTiter Blue Assay in this study. Specifically, reagents were allowed to come to room temperature according to instructions from Protoega, Inc. (Madison, Wis.). CellTiter Blue reagent was added with the 12-channel Eppendorf pipettor, 20 μL per well. The cells were then incubated at 37° C. for 1-4 hrs in cell culture incubator. Fluorescence intensity, which is proportional to the quantity of viable cells, was read at 530/590 nm using FLUOstar optima fluorescence plate reader (BMG technologies, Germany). […]

human H460 NSCLC = assay: Anti-tumor activity, cell growth inhibition by CellTiter Blue Assay, H460; settings: read-out: IC50 H460 (NSCLC)
Description: as §1, §2, §3, §4, §5, §6, §7

[1] = tested on: human adenocarcinoma HT1080; assay: Anti-tumor activity, cell growth inhibition by CellTiter Blue Assay, HT1080; settings: read-out: IC50 HT1080
Description: as §1, §2, §3, §4, §5, §6, §7

[2] = A2058 cells, 48 hours treatment, 0-1 mM, viable cells by CellTiter Blue
[3] = H460 cells, 48 hours treatment, 0-1 mM, viable cells by CellTiter Blue
[4] = HT1080 cells, 48 hours treatment, 0-1 mM, viable cells by CellTiter Blue
[5] = Homo sapiens, A2058, 48 h, A2058 cells, 48 hours treatment, 0-1 mM, viable cells by CellTiter Blue
[6] = Homo sapiens, NCI-H460, 48 h, H460 cells, 48 hours treatment, 0-1 mM, viable cells by CellTiter Blue
[7] = Homo sapiens, HT-1080, 48 h, HT1080 cells, 48 hours treatment, 0-1 mM, viable cells by CellTiter Blue

Row | IC50 (human melanoma A2058; [5]) | IC50 (human H460 NSCLC; [6]) | IC50 [1, 7] | SMILES | also measured
1 | – | – | – | O=C(O)CCCCC1CCSC(c2ccncc2)S1 (stereo not drawn) [Q] | IC50 (human melanoma A2058; Homo sapiens, A2058, 48 h): 717 ± 11 µM
2 | – | – | – | O=C(O)CCCCC(CCSSCc1ccccc1)SSCc1ccccc1 (stereo not drawn) [JJ] | IC50 (human melanoma A2058; [2]): 206 ± 55 µM; IC50 (human H460 NSCLC; [3]): 318 ± 20 µM; IC50 [1, 4]: 133 ± 2 µM
3 | – | – | – | O=C(O)CCCCC(CCSSCc1ccccc1)SSCc1ccccc1 (stereo not drawn) [KK] | IC50 (human melanoma A2058; [2]): 483 ± 180 µM; IC50 (human H460 NSCLC; [3]): 409 ± 69 µM; IC50 [1, 4]: 212 ± 52 µM
4 | – | – | – | O=C(O)CCCCC(CCSc1ccnc2ccccc12)Sc1ccnc2ccccc12 (stereo not drawn) [F] | IC50 (human melanoma A2058; Homo sapiens, A2058, 48 h): 51 ± 4 µM; IC50 (human H460 NSCLC; Homo sapiens, NCI-H460, 48 h): 70 ± 13 µM; IC50 ([1]; Homo sapiens, HT-1080, 48 h): 68 ± 20 µM
5 | 125 ± 3 µM | 167 ± 42 µM | – | O=C(O)CCCCC(CCSCCc1ccccc1)SCCc1ccccc1 (stereo not drawn) [W] | –
6 | 346 ± 20 µM | 449 ± 1 µM | 421 ± 53 µM | CCC(S)(CCCCC(=O)O)CC(S)c1ccccc1 (stereo not drawn) [Compound MM, 6-ethyl-8-phenyl-6,8-bismercaptooctanoic acid] | –
7 | 59 ± 4 µM | 64 ± 4 µM | 60 ± 18 µM | O=C(O)CCCCC(CCSCc1c(F)c(F)c(F)c(F)c1F)SCc1c(F)c(F)c(F)c(F)c1F (stereo not drawn) [X] | –
8 | 183 ± 3 µM | 127 ± 11 µM | 80 ± 8 µM | O=C(O)CCCCC(CCSc1ccnc2cc(Cl)ccc12)Sc1ccnc2cc(Cl)ccc12 (stereo not drawn) [A] | –
9 | 238 ± 2 µM | 282 ± 20 µM | 270 ± 4 µM | CCSC(CCS)CCCCC(=O)O (stereo not drawn) [H, 6-ethylmercapto-8-mercaptooctanoic acid] | –
